Tests used:
[1] = biological target: T1, hSCN3A sodium channels (Homo sapiens, UniProt Q9NY46); assay: hSCN3A electrophysiology, whole-cell patch-clamp or PatchXpress 7000, estimated IC-50 (Table B); assay type: cell-based; conditions: estimated IC-50; hSCN3A cells, whole-cell patch-clamp or PatchXpress 7000; read-out: SCN3A EIC-50
T1 construct: expressed in transfected cells
Protocol: Human Embryonic Kidney (HEK) cells were transfected with an hSCN3A construct using lipofectamine reagent (Invitrogen), using standard techniques. […] Clones were screened for expression using the whole-cell voltage-clamp technique.
HEK cells stably transfected with hSCN3A were maintained in DMEM medium supplemented with 10% heat-inactivated fetal bovine serum and 400 μg/ml G418 sulfate in an incubator at 37° C. with a humidified atmosphere of 10% CO2. […] For electrophysiological studies, cells were removed from the culture flask by brief trypsinization and replated at low density onto glass cover slips. Cells were typically used for electrophysiological experiments within 24 to 72 h after plating.
All recordings were made at room temperature (22-24° C.) using AXOPATCH 200B amplifiers and PCLAMP software (Axon Instruments, Burlingame, Calif.) or PatchXpress 7000 hardware and associated software (Axon Instruments, Burlingame, Calif.).
Current records were acquired at 20 to 50 KHz and filtered at 5 to 10 KHz.
HEK cells stably transfected with hSCN3A were viewed under Hoffman contrast optics and placed in front of an array of flow pipes emitting either control or compound-containing extracellular solutions. All compounds were dissolved in dimethyl sulfoxide to make 10 mM stock solutions, which were then diluted into extracellular solution to attain the final concentrations desired.
The voltage-dependence of inactivation was determined by applying a series of depolarizing prepulses (8 sec long in 10 mV increments) from a negative holding potential. The voltage was then immediately stepped to 0 mV to assess the magnitude of the sodium current. Currents elicited at 0 mV were plotted as a function of prepulse potential to allow estimation of the voltage midpoint of inactivation (V1/2). Cells were then voltage clamped at the empirically determined V1/2.
Compounds were tested for their ability to inhibit hSCN3A sodium channels by activating the channel with a 20 msec voltage step to 0 mV following an 8 second conditioning prepulse to the empirically determined V1/2 (Table B). Compound effect (% inhibition) was determined by difference in current amplitude before and after application of test compounds. […] Inhibition values <20% and >80% were excluded from the calculation.
In some cases electrophysiological assays were conducted with PatchXpress 7000 hardware and associated software (Molecular Devices Corp) (Table B). All assay buffers and solutions were identical to those used in conventional whole-cell voltage clamp experiments described above. hSCN3A cells were grown as above to 50%-80% confluency and harvested by trypsinization. Trypsinized cells were washed and resuspended in extracellular buffer at a concentration of 1×10^6 cells/ml. The onboard liquid handling facility of the PatchXpress was used for dispensing cells and application of test compounds. Determination of the voltage midpoint of inactivation was as described for conventional whole-cell recordings. Cells were then voltage-clamped to the empirically determined V1/2 and current was activated by a 20 msec voltage step to 0 mV.

[2] = biological target: T1, hSCN3A sodium channels; assay: hSCN3A electrophysiology, Ionworks Quattro automated platform (Table C); assay type: cell-based; conditions: for inhibition at 3 µM: read-out: SCN3A % INHIB HTS IWQ 3 μM; for inhibition at 10 µM: read-out: SCN3A % INHIB HTS IWQ 10 μM; for SCN3A INHIB INACT DRC EP IWQ EMAX: Emax of dose-response curve, inactivated state; for IC50: read-out: SCN3A IWQ IC-50
Method in brief: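 HEK cells stably expressing hSCN3A were recorded in perforated-patch mode with 100 μg/ml amphotericin on Ionworks Quattro. The protocol used an inactivating step, a brief hyperpolarized partial recovery, then a depolarized test step. Inhibition was taken from current amplitude before versus after compound addition.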

T1 sequence (Q9NY46 whole entry): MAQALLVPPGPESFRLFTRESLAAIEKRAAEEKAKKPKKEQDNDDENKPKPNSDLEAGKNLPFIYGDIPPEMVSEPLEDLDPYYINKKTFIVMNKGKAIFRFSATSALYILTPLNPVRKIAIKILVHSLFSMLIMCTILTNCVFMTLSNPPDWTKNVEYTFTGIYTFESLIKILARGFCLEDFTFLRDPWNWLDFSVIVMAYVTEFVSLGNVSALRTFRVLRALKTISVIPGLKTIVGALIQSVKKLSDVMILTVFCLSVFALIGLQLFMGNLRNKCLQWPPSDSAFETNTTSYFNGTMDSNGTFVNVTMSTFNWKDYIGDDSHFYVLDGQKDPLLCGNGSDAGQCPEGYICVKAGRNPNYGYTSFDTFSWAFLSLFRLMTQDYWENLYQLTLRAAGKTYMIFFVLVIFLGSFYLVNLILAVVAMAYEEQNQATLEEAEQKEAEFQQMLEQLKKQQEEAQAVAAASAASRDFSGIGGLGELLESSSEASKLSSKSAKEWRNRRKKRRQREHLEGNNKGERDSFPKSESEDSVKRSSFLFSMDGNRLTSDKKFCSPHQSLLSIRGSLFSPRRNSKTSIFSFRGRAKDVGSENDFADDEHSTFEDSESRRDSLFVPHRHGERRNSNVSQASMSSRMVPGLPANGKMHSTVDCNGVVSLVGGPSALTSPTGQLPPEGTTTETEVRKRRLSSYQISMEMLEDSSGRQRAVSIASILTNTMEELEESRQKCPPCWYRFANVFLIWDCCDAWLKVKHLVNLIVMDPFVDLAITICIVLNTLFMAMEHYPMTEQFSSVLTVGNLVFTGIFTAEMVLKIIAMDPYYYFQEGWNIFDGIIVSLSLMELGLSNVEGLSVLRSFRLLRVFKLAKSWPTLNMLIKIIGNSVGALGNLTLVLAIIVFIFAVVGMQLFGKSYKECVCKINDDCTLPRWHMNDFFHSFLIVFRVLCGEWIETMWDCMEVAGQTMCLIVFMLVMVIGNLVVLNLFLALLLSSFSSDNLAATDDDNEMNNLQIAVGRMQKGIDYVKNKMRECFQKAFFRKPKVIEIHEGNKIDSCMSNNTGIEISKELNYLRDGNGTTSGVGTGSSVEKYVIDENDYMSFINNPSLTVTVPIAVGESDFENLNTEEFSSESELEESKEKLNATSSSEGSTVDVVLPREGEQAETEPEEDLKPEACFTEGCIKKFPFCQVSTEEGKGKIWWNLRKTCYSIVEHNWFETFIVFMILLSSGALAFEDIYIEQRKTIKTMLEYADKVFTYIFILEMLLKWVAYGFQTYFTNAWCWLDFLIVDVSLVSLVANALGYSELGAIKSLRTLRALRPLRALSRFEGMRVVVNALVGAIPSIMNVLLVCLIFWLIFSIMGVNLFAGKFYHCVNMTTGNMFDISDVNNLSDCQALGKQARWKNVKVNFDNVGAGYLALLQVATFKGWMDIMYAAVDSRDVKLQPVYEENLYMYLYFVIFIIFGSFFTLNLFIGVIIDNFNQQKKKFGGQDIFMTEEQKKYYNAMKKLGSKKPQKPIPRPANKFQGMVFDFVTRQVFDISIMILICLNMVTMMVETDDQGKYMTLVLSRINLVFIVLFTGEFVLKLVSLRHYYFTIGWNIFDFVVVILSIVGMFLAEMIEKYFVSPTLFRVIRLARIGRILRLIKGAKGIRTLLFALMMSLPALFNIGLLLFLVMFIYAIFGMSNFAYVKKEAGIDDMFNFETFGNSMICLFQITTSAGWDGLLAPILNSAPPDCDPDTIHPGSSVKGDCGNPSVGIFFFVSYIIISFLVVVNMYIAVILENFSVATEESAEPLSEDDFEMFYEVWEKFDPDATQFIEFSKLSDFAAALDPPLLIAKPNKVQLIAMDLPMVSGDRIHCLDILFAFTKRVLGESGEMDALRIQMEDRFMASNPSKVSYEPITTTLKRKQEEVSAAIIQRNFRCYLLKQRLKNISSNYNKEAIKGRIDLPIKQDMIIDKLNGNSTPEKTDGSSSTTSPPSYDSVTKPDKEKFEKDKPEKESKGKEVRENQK

Row | Molecule | IC50 [1] [nM] | inhibition at 3 µM ([2]; 3 μM compound) [%] | inhibition at 10 µM ([2]; 10 μM compound) [%] | also measured
1 | 4-[(1,3-Thiazol-2-ylamino)sulfonyl]-N-(4-isopropyloxybenzyl)benzamide [Example 69] | 770 | – | – | –
2 | O=C(NCc1ccc(C(F)(F)F)cc1)c1ccc(S(=O)(=O)Nc2ncc(Cl)s2)cc1 [Example 1, 4-{[(5-Chloro-1,3-thiazol-2-yl)amino]sulfonyl}-N-[4-(trifluoromethyl)benzyl]benzamide] | 70 | – | – | –
3 | Cn1ccc(NS(=O)(=O)c2ccc(C(=O)NCc3ccc(C(F)(F)F)cc3)cc2)n1 [Example 2, 4-{[(1-Methyl-1H-pyrazol-3-yl)amino]sulfonyl}-N-[4-(trifluoromethyl)benzyl]benzamide] | > 1000 | – | – | –
4 | O=C(NCc1ccc(C(F)(F)F)cc1)c1ccc(S(=O)(=O)Nc2nc(C(F)(F)F)cs2)cc1 [Example 4, N-[4-(Trifluoromethyl)benzyl]-4-({[4-(trifluoromethyl)-1,3-thiazol-2-yl]amino}sulfonyl)benzamide] | 2530 | – | – | –
5 | Cc1nsc(NS(=O)(=O)c2ccc(C(=O)NCc3ccc(C(F)(F)F)cc3)cc2)n1 [Example 6, 4-{[(3-Methyl-1,2,4-thiadiazol-5-yl)amino]sulfonyl}-N-[4-(trifluoromethyl)benzyl]benzamide] | 1110 | – | – | –
6 | O=C(NCc1ccc(C(F)(F)F)cc1)c1ccc(S(=O)(=O)Nc2ccon2)cc1 [Example 7, 4-[(Isoxazol-3-ylamino)sulfonyl]-N-[4-(trifluoromethyl)benzyl]benzamide] | 5870 | – | – | –
7 | Cn1cnc(NS(=O)(=O)c2ccc(C(=O)NCc3ccc(C(F)(F)F)cc3)cc2)n1 [Example 9, 4-{[(1-Methyl-1H-1,2,4-triazol-3-yl)amino]sulfonyl}-N-[4-(trifluoromethyl)benzyl]benzamide] | > 10000 | – | – | –
8 | Cn1cc(NS(=O)(=O)c2ccc(C(=O)NCc3ccc(C(F)(F)F)cc3)cc2)cn1 [Example 10, 4-{[(1-Methyl-1H-pyrazol-4-yl)amino]sulfonyl}-N-[4-(trifluoromethyl)benzyl]benzamide] | 1510 | – | – | –
9 | Cc1nnc(NS(=O)(=O)c2ccc(C(=O)NCc3ccc(C(F)(F)F)cc3)cc2)s1 [Example 11, 4-{[(5-Methyl-1,3,4-thiadiazol-2-yl)amino]sulfonyl}-N-[4-(trifluoromethyl)benzyl]benzamide] | 2560 | – | – | –
10 | Cc1noc(NS(=O)(=O)c2ccc(C(=O)NCc3ccc(C(F)(F)F)cc3)cc2)c1C [Example 12, 4-{[(3,4-Dimethylisoxazol-5-yl)amino]sulfonyl}-N-[4-(trifluoromethyl)benzyl]benzamide] | 29600 | – | – | –
11 | O=C(c1ccc(S(=O)(=O)Nc2nccs2)cc1)N1CCC(COCC2CC2)C1 (stereo not shown) [Example 269, 4-({3-[(Cyclopropylmethoxy)methyl]pyrrolidin-1-yl}carbonyl)-N-1,3-thiazol-2-yl-benzenesulfonamide] | – | 0.37 | 16.5 | –
12 | COc1ccc(CC2CCCN(C(=O)c3ccc(S(=O)(=O)Nc4nccs4)cc3)C2)cc1 (stereo not shown) [Example 270, 4-{[3-(4-Methoxybenzyl)piperidin-1-yl]carbonyl}-N-1,3-thiazol-2-yl-benzenesulfonamide] | – | 19.2 | 45.7 | SCN3A INHIB INACT DRC EP IWQ EMAX [2]: 53.7; IC50 [2]: 27700 nM
13 | O=C(c1ccc(S(=O)(=O)Nc2nccs2)cc1)N1CCCC(COc2cc(F)cc(F)c2)C1 (stereo not shown) [Example 271, 4-({3-[(3,5-Difluorophenoxy)methyl]piperidin-1-yl}carbonyl)-N-1,3-thiazol-2-yl-benzenesulfonamide] | – | 35.8 | 41.4 | SCN3A INHIB INACT DRC EP IWQ EMAX [2]: 52.4; IC50 [2]: 26400 nM
14 | O=C(c1ccc(S(=O)(=O)Nc2nccs2)cc1)N1CCCC(Cc2cncnc2)C1 (stereo not shown) [Example 272, 4-{[3-(Pyrimidin-5 ylmethyl)piperidin-1-yl]carbonyl}-N-1,3-thiazol-2-yl-benzenesulfonamide] | – | 1.88 | 8.31 | –
15 | COc1cccc(C2CCCN2C(=O)c2ccc(S(=O)(=O)Nc3nccs3)cc2)c1 (stereo not shown) [Example 273, 4-{[2-(3-Methoxyphenyl)pyrrolidin-1-yl]carbonyl}-N-1,3-thiazol-2-yl-benzenesulfonamide] | – | 4.82 | 2.72 | –
16 | CN(CC1Cc2ccccc2O1)C(=O)c1ccc(S(=O)(=O)Nc2nccs2)cc1 (stereo not shown) [Example 274, N-(2,3-dihydro-1-benzofuran-2-ylmethyl)-N-methyl-4-[(1,3-thiazol-2-ylamino)sulfonyl]benzamide] | – | 14.6 | 19.6 | –
17 | COc1cccc(C2CCCCCN2C(=O)c2ccc(S(=O)(=O)Nc3nccs3)cc2)c1 (stereo not shown) [Example 275, 4-{[2-(3-Methoxyphenyl)azepan-1-yl]carbonyl}-N-1,3-thiazol-2-yl-benzenesulfonamide] | – | 9.93 | -0.2 | –
18 | Cc1cccc(CN2CCN(C(=O)c3ccc(S(=O)(=O)Nc4nccs4)cc3)CC2=O)c1 [Example 276, 4-{[4-(3-Methylbenzyl)-3-oxopiperazin-1-yl]carbonyl}-N-1,3-thiazol-2-yl-benzenesulfonamide] | – | 18.1 | 20.6 | –
19 | N#Cc1cccc(OCC2CCCN(C(=O)c3ccc(S(=O)(=O)Nc4nccs4)cc3)C2)c1 (stereo not shown) [Example 278, 4-({3-[(3-Cyanophenoxy)methyl]piperidin-1-yl}carbonyl)-N-1,3-thiazol-2-yl-benzenesulfonamide] | – | 25.4 | 30 | –
20 | COc1ccc(C2CC(CO)CN2C(=O)c2ccc(S(=O)(=O)Nc3nccs3)cc2)cc1 (stereo not shown) [Example 280, 4-{[4-(Hydroxymethyl)-2-(4-methoxyphenyl)pyrrolidin-1-yl]carbonyl}-N-1,3-thiazol-2-yl-benzenesulfonamide] | – | 13.2 | 17 | –
21 | O=C(c1ccc(S(=O)(=O)Nc2nccs2)cc1)N1CCCC1c1ccccc1F (stereo not shown) [Example 281, 4-{[2-(2-Fluorophenyl)pyrrolidin-1-yl]carbonyl}-N-1,3-thiazol-2-yl-benzenesulfonamide] | – | 10.2 | 28.9 | –
22 | O=C(c1ccc(S(=O)(=O)Nc2nccs2)cc1)N1CCC(Cc2ccccc2)C1 (stereo not shown) [Example 282, 4-[(3-Benzylpyrrolidin-1-yl)carbonyl]-N-1,3-thiazol-2-yl-benzenesulfonamide] | – | 29.1 | 11.4 | –
23 | O=C(c1ccc(S(=O)(=O)Nc2nccs2)cc1)N1CCCC1c1ccccn1 (stereo not shown) [Example 283, 4-[(2-Pyridin-2-ylpyrrolidin-1-yl)carbonyl]-N-1,3-thiazol-2-ylbenzenesulfonamide] | – | -1.98 | 0.98 | –
24 | O=C(NCc1cccc(OC(F)(F)F)c1)c1ccc(S(=O)(=O)Nc2nccs2)c(Cl)c1 [Example 285, 3-Chloro-4-[(1,3-thiazol-2-ylamino)sulfonyl]-N-[3-(trifluoromethoxy)benzyl]benzamide] | – | 15.1 | 39.1 | –
25 | O=C(NCc1cccc(C(F)(F)F)c1)c1ccc(S(=O)(=O)Nc2nccs2)c(Cl)c1 [Example 288, 3-Chloro-4-[(1,3-thiazol-2-ylamino)sulfonyl]-N-[3-(trifluoromethyl)benzyl]benzamide] | – | 4.38 | 13.4 | –
26 | N-[1-(3-methylbenzyl)cyclopropyl] 4-[(1,3-thiazol-2-ylamino)sulfonyl]benzamide [Example 159] | – | – | – | SCN3A % INHIB HTS IWQ 3 μM ([2]; 3 μM compound): 28.7%; SCN3A % INHIB HTS IWQ 10 μM ([2]; 10 μM compound): 35.85%

From US8741934B2, “Inhibitors of ion channels” (Pfizer Limited, priority 2007, dated 2014)
